Source: patent US4303664A, “Novel penicillin derivatives containing a coumarin nucleus and medicines containing the same” (Teijin Limited, priority 1978, dated 1981)
Values after ≈ are worked out from the molar mass of the structure shown.

How the values were obtained:
Assay type in all cases: cell-based
[1] = test system: Staphylococcus aureus 209-p; assay: Bactericidal test (MIC), Staphylococcus aureus 209-p; conditions: (1) Staphylococcus aureus 209-p
Text: (§1) Results of bactericidal tests (MIC, r/ml) on the penicillin derivatives of this invention prepared in the above examples are shown in the following table.

[2] = test system: Staphylococcus aureus 1248; assay: Bactericidal test (MIC), Staphylococcus aureus 1248; conditions: (2) Staphylococcus aureus 1248; read-out: MIC
Text: as §1

Bacillus subtilis = assay: Bactericidal test (MIC), Bacillus subtilis; conditions: (3) Bacillus subtilis
Text: as §1

[3] = test system: Salmonella typhimurium G-20; assay: Bactericidal test (MIC), Salmonella typhimurium G-20; conditions: Salmonella enterica; (4) Salmonella typhimurium G-20
Text: as §1

[4] = test system: Escherichia Coli NIHJ JC-2; assay: Bactericidal test (MIC), Escherichia Coli NIHJ JC-2; conditions: NIHJJC2; (5) Escherichia Coli NIHJ JC-2
Text: as §1

[5] = test system: Klebsiella neumoniae ATCC10031; assay: Bactericidal test (MIC), Klebsiella neumoniae ATCC10031; conditions: (6) Klebsiella neumoniae ATCC10031; read-out: MIC
Text: as §1

Enterobactor cloacae 147 = assay: Bactericidal test (MIC), Enterobactor cloacae 147; conditions: (7) Enterobactor cloacae 147
Text: as §1

[6] = test system: Enterobacter cloacae IF012937; assay: Bactericidal test (MIC), Enterobacter cloacae IF012937; conditions: (8) Enterobacter cloacae IF012937
Text: as §1

Morganella var. G-2 = assay: Bactericidal test (MIC), Morganella var. G-2; conditions: VAR.G2; (9) Morganella var. G-2; read-out: MIC
Text: as §1

Rettgerella var. Tid-21 = assay: Bactericidal test (MIC), Rettgerella var. Tid-21; conditions: (10) Rettgerella var. Tid-21; read-out: MIC
Text: as §1

Serratia G-18 = assay: Bactericidal test (MIC), Serratia G-18; conditions: G18; (11) Serratia G-18; read-out: MIC
Text: as §1

[7] = test system: Pseudomonas aeruginosa IFO-3080; assay: Bactericidal test (MIC), Pseudomonas aeruginosa IFO-3080; conditions: IFO3080; (12) Pseudomonas aeruginosa IFO-3080; read-out: MIC
Text: as §1

[8] = test system: Pseudomonas aeruginosa 0-37; assay: Bactericidal test (MIC), Pseudomonas aeruginosa 0-37; conditions: 037; (13) Pseudomonas aeruginosa 0-37
Text: as §1

[9] = test system: Pseudomonas aeruginosa Tid-53; assay: Bactericidal test (MIC), Pseudomonas aeruginosa Tid-53; conditions: TID53; (14) Pseudomonas aeruginosa Tid-53
Text: as §1

[10] = test system: Pseudomonas aeruginosa GN-315; assay: Bactericidal test (MIC), Pseudomonas aeruginosa GN-315; conditions: GN315; (15) Pseudomonas aeruginosa GN-315
Text: as §1

[11] = test system: Pseudomonas aeruginosa 130; assay: Bactericidal test (MIC), Pseudomonas aeruginosa 130; conditions: (16) Pseudomonas aeruginosa 130
Text: as §1

Row | Compound | MIC [1] [µg/mL] | MIC [2] [µg/mL] | MIC (Bacillus subtilis) [µg/mL] | MIC [3] [µg/mL] | MIC [4] [µg/mL] | MIC [5] [µg/mL] | MIC (Enterobactor cloacae 147) [µg/mL] | MIC [6] [µg/mL] | MIC (Morganella var. G-2) [µg/mL] | MIC (Rettgerella var. Tid-21) [µg/mL] | MIC (Serratia G-18) [µg/mL] | MIC [7] [µg/mL] | MIC [8] [µg/mL] | MIC [9] [µg/mL] | MIC [10] [µg/mL] | MIC [11] [µg/mL]
1 | Cc1ccc2oc(=O)c(C(=O)N[C@@H](C(=O)N[C@@H]3C(=O)N4[C@@H]3SC(C)(C)[C@@H]4C(=O)O)c3ccccc3)c(C)c2c1 [Example 5, D(-)-α-(4,6-Dimethylcoumarin-3-carbonamido)benzylpenicillin] | < 0.4 | 1.56 (≈ 2.84 µM) | < 0.4 | < 0.4 | < 0.4 | 0.8 (≈ 1.46 µM) | 100 (≈ 182 µM) | 50 (≈ 91 µM) | 25 (≈ 45.5 µM) | 25 (≈ 45.5 µM) | 50 (≈ 91 µM) | 12.5 (≈ 22.7 µM) | 200 (≈ 364 µM) | 50 (≈ 91 µM) | 50 (≈ 91 µM) | 12.5 (≈ 22.7 µM)
2 | COC(=O)c1cccc2cc(C(=O)N[C@@H](C(=O)N[C@@H]3C(=O)N4[C@@H]3SC(C)(C)[C@@H]4C(=O)O)c3ccccc3)c(=O)oc12 [Example 14, D(-)-α-(8-Methoxycarbonylcoumarin-3-carbonamido)benzylpenicillin] | < 0.4 | 3.13 (≈ 5.4 µM) | < 0.4 | < 0.4 | < 0.4 | 1.56 (≈ 2.69 µM) | 25 (≈ 43.1 µM) | 6.25 (≈ 10.8 µM) | 1.56 (≈ 2.69 µM) | 12.5 (≈ 21.6 µM) | 12.5 (≈ 21.6 µM) | 3.13 (≈ 5.4 µM) | 100 (≈ 173 µM) | 25 (≈ 43.1 µM) | 12.5 (≈ 21.6 µM) | 3.13 (≈ 5.4 µM)
3 | CC1(C)S[C@@H]2[C@H](NC(=O)[C@H](NC(=O)c3cc4cc(Br)cc(Br)c4oc3=O)c3ccccc3)C(=O)N2[C@H]1C(=O)O [Example 4, D(-)-α-(6,8-Dibromocoumarin-3-carbonamido)benzylpenicillin] | 1.56 (≈ 2.3 µM) | 50 (≈ 73.6 µM) | 1.56 (≈ 2.3 µM) | 3.13 (≈ 4.61 µM) | < 0.4 | 3.13 (≈ 4.61 µM) | 50 (≈ 73.6 µM) | 200 (≈ 294 µM) | 25 (≈ 36.8 µM) | 100 (≈ 147 µM) | 100 (≈ 147 µM) | 50 (≈ 73.6 µM) | 200 (≈ 294 µM) | 200 (≈ 294 µM) | 200 (≈ 294 µM) | 50 (≈ 73.6 µM)
4 | CC(=O)Oc1ccc2oc(=O)c(C(=O)N[C@@H](C(=O)N[C@@H]3C(=O)N4[C@@H]3SC(C)(C)[C@@H]4C(=O)O)c3ccc(O)cc3)cc2c1 [Example 17, D(-)-α-(6-Acetoxycoumarin-3-carbonamido)-p-hydroxybenzylpenicillin] | < 0.4 | 3.13 (≈ 5.26 µM) | < 0.4 | < 0.4 | < 0.4 | 3.13 (≈ 5.26 µM) | 12.5 (≈ 21 µM) | 12.5 (≈ 21 µM) | 12.5 (≈ 21 µM) | 3.13 (≈ 5.26 µM) | 50 (≈ 84 µM) | 0.8 (≈ 1.34 µM) | 25 (≈ 42 µM) | 6.25 (≈ 10.5 µM) | 3.13 (≈ 5.26 µM) | 1.56 (≈ 2.62 µM)
5 | Cc1cccc2cc(C(=O)N[C@@H](C(=O)N[C@@H]3C(=O)N4[C@@H]3SC(C)(C)[C@@H]4C(=O)O)c3ccccc3)c(=O)oc12 [Example 15, D(-)-α-(8-Methylcoumarin-3-carbonamido)benzylpenicillin] | < 0.4 | 6.25 (≈ 11.7 µM) | < 0.4 | < 0.4 | < 0.4 | 6.25 (≈ 11.7 µM) | 200 (≈ 373 µM) | 100 (≈ 187 µM) | 100 (≈ 187 µM) | 50 (≈ 93.4 µM) | 200 (≈ 373 µM) | 12.5 (≈ 23.3 µM) | 200 (≈ 373 µM) | 100 (≈ 187 µM) | 200 (≈ 373 µM) | 25 (≈ 46.7 µM)
6 | CC(=O)Nc1ccc2oc(=O)c(C(=O)N[C@@H](C(=O)N[C@@H]3C(=O)N4[C@@H]3SC(C)(C)[C@@H]4C(=O)O)c3ccccc3)cc2c1 [Example 20, D(-)-α-(6-Acetylaminocoumarin-3-carbonamido)benzylpenicillin] | < 0.4 | 3.13 (≈ 5.41 µM) | < 0.4 | < 0.4 | < 0.4 | 1.56 (≈ 2.7 µM) | 6.25 (≈ 10.8 µM) | 6.25 (≈ 10.8 µM) | 6.25 (≈ 10.8 µM) | 6.25 (≈ 10.8 µM) | 50 (≈ 86.4 µM) | 3.13 (≈ 5.41 µM) | 50 (≈ 86.4 µM) | 6.25 (≈ 10.8 µM) | 6.25 (≈ 10.8 µM) | 1.56 (≈ 2.7 µM)
7 | CC(=O)Oc1ccc2cc(C(=O)N[C@@H](C(=O)N[C@@H]3C(=O)N4[C@@H]3SC(C)(C)[C@@H]4C(=O)O)c3ccccc3)c(=O)oc2c1 [Example 12, D(-)-α-(7-Acetoxycoumarin-3-carbonamido)benzylpenicillin] | < 0.4 | 3.13 (≈ 5.4 µM) | < 0.4 | < 0.4 | < 0.4 | 12.5 (≈ 21.6 µM) | 12.5 (≈ 21.6 µM) | 100 (≈ 173 µM) | 25 (≈ 43.1 µM) | 12.5 (≈ 21.6 µM) | 100 (≈ 173 µM) | 1.56 (≈ 2.69 µM) | 50 (≈ 86.3 µM) | 6.25 (≈ 10.8 µM) | 6.25 (≈ 10.8 µM) | 1.56 (≈ 2.69 µM)
8 | COc1ccc2oc(=O)c(C(=O)N[C@@H](C(=O)N[C@@H]3C(=O)N4[C@@H]3SC(C)(C)[C@@H]4C(=O)O)c3ccccc3)cc2c1 [Example 7, D(-)-α-(6-Methoxycoumarin-3-carbonamido)benzylpenicillin] | < 0.4 | 1.56 (≈ 2.83 µM) | < 0.4 | < 0.4 | < 0.4 | < 0.4 | 3.13 (≈ 5.67 µM) | 3.13 (≈ 5.67 µM) | 6.25 (≈ 11.3 µM) | 6.25 (≈ 11.3 µM) | 12.5 (≈ 22.7 µM) | 1.56 (≈ 2.83 µM) | 25 (≈ 45.3 µM) | 3.13 (≈ 5.67 µM) | 3.13 (≈ 5.67 µM) | 1.56 (≈ 2.83 µM)
9 | CC1(C)S[C@@H]2[C@H](NC(=O)[C@H](NC(=O)c3cc4cc(O)ccc4oc3=O)c3ccccc3)C(=O)N2[C@H]1C(=O)O [Example 10, D(-)-α-(6-Hydroxycoumarin-3-carbonamido)benzylpenicillin] | < 0.4 | 1.56 (≈ 2.9 µM) | < 0.4 | < 0.4 | < 0.4 | 0.8 (≈ 1.49 µM) | 3.13 (≈ 5.82 µM) | 100 (≈ 186 µM) | 6.25 (≈ 11.6 µM) | 6.25 (≈ 11.6 µM) | 12.5 (≈ 23.3 µM) | 1.56 (≈ 2.9 µM) | 25 (≈ 46.5 µM) | 6.25 (≈ 11.6 µM) | 3.13 (≈ 5.82 µM) | 3.13 (≈ 5.82 µM)
